Laboratory results taken from patent US7144731B2, “SCF antibody compositions and methods of using the same” (Amgen Inc., priority 1989, dated 2006).
Entries after “also recorded” stand apart in the source; their conditions may differ.

Tests used:
[1] = system: Balb/c mice; test: 5-FU experimental thrombocytopenia; type: in vivo, mouse
Experimental: Balb/c mice were either untreated or treated intravenously with 5-fluorouracil (150 mg/kg) on Day 0 (n=5). Blood analyses were performed on the indicated days as in legend to FIG. 53. Error bars are present, but not discernable, in some of the control points. […] After Day 12, platelet counts appeared to cycle from normal to high levels throughout the 40 day testing period. […] Two Balb/c mice per group were sacrificed at the indicated days. Cells from bone marrow (Panel A) or spleen (Panel B) were aliquoted at 100,000/well of a microtiter plate and stained for acetylcholinesterase according to published procedures, Long et al., Immature megakaryocytes in the mouse: Morphology and quantitation by acetlycholinesterase staining. Blood 58: 1032, 1981. Data points are the percentage of ACH+ cells per well for individual animals.
Platelet volumes also increase after 5-FU (FIG. 57). The data in this figure were generated from the same blood samples collected in FIG. 55. Mean Platelet Volume (MPV) is one of the parameters analyzed by the Sysmex Cell Analyzer.
The possibility of a relationship between SCF and the physiological regulator of platelet production induced in the 5-FU thrombocytopenic model was explored. 5-FU was given to normal mice and SCF mRNA expression levels quantitated in bone marrow cells collected on the days indicated in FIG. 58. In FIG. 58, one million cells were lysed in SDS buffer and the lysate was analyzed for the presence of mRNA specific for murine SCF. […] RNA sense strand standards for quantitation of the hybridization assays were produced by runoff transcription of the same region in the direction opposite to the direction of probe synthesis using tracer quantities of ^35S-UTP and 0.2 mM unlabeled UTP.
SCF or actin mRNA levels were quantitated as follows. […] After addition of 5 mls Liquiscint (New England Nuclear; Boston, Mass.) samples were counted 20 minutes or to 3% error. […]

[2] = biological target: T1, SCF receptor (OCIM1 plasma membrane) (Homo sapiens, UniProt P10721); test: SCF radioreceptor assay; type: binding
T1 construct: endogenous in cells; host or cells: OCIM1 human erythroleukemic cells, plasma membrane preparation
Experimental: OCIM1 cells, [Papayannopoulou et al., Blood 72:1029–1038 (1988)] are a human erythroleukemic cell line expressing many human SCF receptors per cell. These cells are grown in Iscove's Modified Dulbecco's Medium, 10% FBS, and 1× glutamine and passaged 3 times a week to 1×10^5 cells/ml.
Preparation of the OCIM1 plasma membrane is as follows with all steps performed on ice.
First, 40 T175 flasks of cells were grown-up in OCIM1 culture medium, for a total of 1.9×10^9 […]. The conditioned medium and 1 mM Phenyl Methyl Sulfonyl Fluoride (PMSF) protease inhibitor, was spun down in 8×250 ml tubes at 1000 rpm for 10 minutes at 4° C. Cells were washed with PBS and repelleted in 4×50 ml centrifuge tubes at 1000 rpm for 10 minutes at 4° C. Cells were resuspended in 20 ml ice cold PBS with glucose sodium pyruvate (Gibco Cat #310-4287). The 20 ml cell solution was put into a pre-pressurized, pre-chilled (4° C.) “cell bomb” designed to lyse the cells. Cells were pressurized at 400–650 PSI for 10 minutes to establish equilibrium. When the pressure is released cell lysis occurs.
At this point the cells were checked for the percentage of cell lysis. 90% lysis was common. The cell suspension was resuspended in 80 mls sucrose buffer (0.25M sucrose, 10 mM Tris, 1 mM EDTA in double distilled (dd) H2O, filtered through a 0.45 u filter, pH 7.0) and divided between two 40 ml screwcap tubes. Tubes were spun at 5900 RPM for 10 minutes in a Beckman J2-21 centrifuge, JA-20 rotor at 4° C. The supernatants were saved and spun one more time as above to further remove any unwanted material. Supernatants were saved and distributed equally into 2 nalgene 40 ml centrifuge tubes. These supernatants were centrifuged at 16,000 RPM 4° C. for 30 min. in J2-21 centrifuge, JA-20 rotor. These supernatants were discarded being careful to save pellets. Each pellet was resuspended in sucrose buffer so there were 20 mls per tube in 4×36 ml plastic ultracentrifuge tubes. Using a 20 ml syringe and a large trochar, the solution was carefully underlayered in each tube with ice cold 36% sucrose solution (36.1 g sucrose/100 mls ddH2O), bringing the level of the liquid to within 2 mm of the top of the tube. Without disturbing the interface, each tube was carefully placed into each of […] titanium ultracentrifuge tubes. Tubes were centrifuged at 27,000 RPM, 4° C. for 75 minutes in an ultracentrifuge. These tubes were carefully removed from the rotor and from titanium buckets, placed in a rack with the 36% sucrose interface visible. The membraneous material at the interface was collected with a pasteur pipet and transfered into 2 clean nalgene 40 ml centrifuge tubes. Volume was brought up to 40 mls with ice cold sucrose buffer. Tubes were balanced and centrifuged as before at 5900 RPM in J2-21 centrifuge. […]

[3] = system: UT-7 cells; test: UT-7 ^3H-thymidine uptake assay; type: cell-based, human
Experimental: UT-7 cells are a human megakaryocyte, huGM-CSF responsive cell line obtained from John Adamson, New York Blood Center, New York, N.Y. UT-7 cells were cultured in Iscove's Modified Dulbecco's Medium, 10% FBS, 1× glutamine, 5 \g/ml huGM-CSF. Cells are passaged twice a week at 1×10^5 cells/ml.
Cells were washed twice in phosphate buffered saline (PBS) and resuspended in RPMI medium with 4% FBS and glutamine penicillin streptomycin (GPS) (Irvine Scientific Cat No. 9316 used at 1% volume per volume) at 4×10^4 cells/ml before use. Human SCF along with specific samples were added to 4000 cells/well in 96 well plates and were cultured for 72 hrs. 0.5 uCi/well of ^3H-Thymidine was then added to each plate, plates were harvested and counted 4 hours later.

With `O=c1[nH]cc(F)c(=O)[nH]1` [5-FU, 5-fluorouracil] the “megakaryocyte numbers (ACH+ cells) in bone marrow and spleen” value ([1]; 150 mg/kg i.v.) was “rise dramatically”, the platelet volumes ([1]; 150 mg/kg i.v.) was “increase” and the “platelet counts, time course” value ([1]; 150 mg/kg i.v. on Day 0) was “thrombocytopenic by Day 5; also recorded: rebound thrombocytosis”.

B1: SCF^1-130: E. coli human SCF analog, amino acids 1 to 130 (protein)
chain: EGICRNRVTNNVKDVTKLVANLPKDYMITLKYVPGMDVLPSHCWISEMVVQLSDSLTDLLDKFSNISEGLSNYSIIDKLVNIVDDLVECVKENSSKDLKKSFKSPEPRLFTPEEFFRIFNRSIDAFKDFV
With B1 the “specific activity in the radioreceptor assay” value [2] was “about 50 % of the value for SCF^1-164” and the “specific activity in the UT-7 assay” value [3] was “about 15 % of the value for SCF^1-164”.
